# Results published in US20100173873A1, “TREATMENT OF METASTASIZED TUMORS” (Novartis Vaccines and Diagnostics, Inc., priority 2005, published 2010).
# Tested on: PC-3M-luc tumor cells
# Experiment: PC-3M-luc bone metastatic prostate model
# Type: in vivo, nude mice
# Settings: 15 mg/kg i.p. 3 times per week
# Procedure: Cell lines. Metastatic human prostate cell line PC-3M expressing null p53, del PTEN, VEGFR, FGFR and stably transfected with a construct of luciferase were obtained under a licensing agreement with Xenogen.
# In vivo efficacy studies. […]. Animals received sterile rodent chow and water ad libitum and were housed in sterile filter-top cages with 12 hour light/dark cycles. All experiments were conducted under the guidelines of the Association for Assessment and Accreditation of Laboratory Animal Care International. PC-3M luc bone metastatic model. Human prostate cancer cell line PC-3M-luc cells (1.5×10^6 cells) stably transfected with a construct of luciferase were injected via intracardiac injections. Bioluminescent imaging (Xenogen's IVIS® imaging system) was used to non-invasively monitor the in vivo growth and metastasis of PC-3M-luc tumors after cell inoculation. Nearly all PC-3M-luc tumor cell-injected animals developed prostate lesions, which were mainly localized in the femur, and mandibles. […]. Mice were monitored daily and were euthanized when moribund.
# Immunohistochemistry. Bone (femurs, mandible) samples were decalcified (Protocol™, Fisher Diagnostics, Middletown, Va.). Paraffin blocks were sectioned to […] thickness and placed on positively charged glass slides. Tissues were stained with hematoxylin and eosin for general tissue morphology and identification of PC-3M cells in bone.
# Nude mice were inoculated with PC-3M-Luc cells intracardiacally with 1.5×10^6 cells. […]. The PC-3M-luc cell lines were purchased from Xenogen and the mice were imaged using Xenogen's IVIS® imaging system.
structure (smiles),measurement,value
"CC(=O)O[C@H]1C(=O)[C@@]2(C)[C@H]([C@H](OC(=O)c3ccccc3)[C@]3(O)C[C@H](OC(=O)[C@H](O)[C@@H](NC(=O)c4ccccc4)c4ccccc4)C(C)=C1C3(C)C)[C@]1(OC(C)=O)CO[C@@H]1C[C@@H]2O [taxol, reference compound]",Treatment efficacy vs. vehicle,No difference in treatment efficacy
